The values below come from ChEMBL document CHEMBL4609991, “Discovery of N-ethylpyridine-2-carboxamide derivatives as a novel scaffold for orally active γ-secretase modulators” (Bioorg Med Chem, 2020).

One series concerns the target Gamma-secretase. The series is described as follows: Modulatory activity of gamma secretase in human SKNBE2 cells assessed as decrease in Abeta42 levels incubated for 6 hrs by sandwich ELISA. The class given is cell-based. In general terms: ELISA stands for enzyme-linked immunosorbent assay.
A short description of another series: in vitro. Particulars: CD1, mouse, liver microsomes. (Microsomes from liver hold many membrane-bound enzymes, among them those of drug oxidation.)
Series [1] concerns the target Gamma-secretase (Homo sapiens) (UniProt Q96BI3+Q9NZ42+Q8WW43+P49768+Q92542+P49810). Briefly: Inhibition of gamma-secretase in human H4 cells overexpressing human wild-type APP assessed as beta-CTF level incubated for 24 hrs by ELISA. In kind it is cell-based.
Series [2] in a line: Drug concentration in ddY mouse plasma at 30 mg/kg, po measured after 3 hrs by LC-MS/MS analysis. In kind it is ADME, organism-based.
The nature of series [3]: Drug concentration in ddY mouse brain at 30 mg/kg, po measured after 3 hrs by LC-MS/MS analysis. In kind it is ADME, organism-based. Particulars: read-out: Ct.
Series [4] can be described thus: […], ratio of drug concentration in brain to plasma at steady state in ddY mouse at 30 mg/kg, po by LC-MS/MS analysis. The class given is ADME, organism-based.
The nature of series [5]: Ratio of drug concentration in ddY mouse brain to IC50 for gamma secretase in human SKNBE2 cells assessed as decrease in Abeta42 levels incubated for 6 hrs by sandwich ELISA. In kind it is ADME, cell-based.
The subject of series [6] is Mus musculus. Briefly: In vivo modulatory activity of gamma secretase in ddY mouse assessed as reduction in Abeta42 levels in brain at 30 mg/kg, po measured after 3 hrs by ELISA relative to control. The class given is functional.
Series [7] relates to Mus musculus. The series is described as follows: In vivo modulatory activity of gamma secretase in ddY mouse assessed as reduction in Abeta42 levels in plasma at 30 mg/kg, po measured after 3 hrs by ELISA relative to control. In kind it is functional.
Series [8] deals with T1, CYP3A4 (Homo sapiens, UniProt P08684). The series is described as follows: Inhibition of CYP3A4 in human liver microsomes assessed as residual activity at 5 uM using midazolam as substrate measured after 20 mins by LC-MS/MS analysis relative to control. The class given is ADME. To be noted: probe midazolam, read-out: Activity.
Series [9] deals with T1, CYP3A4. Briefly: Inhibition of CYP3A4 in human liver microsomes assessed as residual activity at 5 uM using midazolam as substrate preincubated with enzyme for 30 mins followed by incubation with substrate for 20 mins by LC-MS/MS analysis relative to control. To be noted: probe midazolam, read-out: Activity. In kind it is ADME.

What is called IC50 is the midpoint of a concentration-inhibition curve. Usually microsomal CLint stands for a measure of how fast metabolising enzymes remove a compound, apart from limits set by blood flow. The term Kp denotes tissue or fluid exposure divided by exposure in the circulation. As usually defined, the inhibition in vivo is the percentage by which the read-out fell short of the control.

Activity calls are given as the source filed them. No cut-off for these calls is given here. Bounds are passed on as bounds.

T1 sequence (P08684 whole entry): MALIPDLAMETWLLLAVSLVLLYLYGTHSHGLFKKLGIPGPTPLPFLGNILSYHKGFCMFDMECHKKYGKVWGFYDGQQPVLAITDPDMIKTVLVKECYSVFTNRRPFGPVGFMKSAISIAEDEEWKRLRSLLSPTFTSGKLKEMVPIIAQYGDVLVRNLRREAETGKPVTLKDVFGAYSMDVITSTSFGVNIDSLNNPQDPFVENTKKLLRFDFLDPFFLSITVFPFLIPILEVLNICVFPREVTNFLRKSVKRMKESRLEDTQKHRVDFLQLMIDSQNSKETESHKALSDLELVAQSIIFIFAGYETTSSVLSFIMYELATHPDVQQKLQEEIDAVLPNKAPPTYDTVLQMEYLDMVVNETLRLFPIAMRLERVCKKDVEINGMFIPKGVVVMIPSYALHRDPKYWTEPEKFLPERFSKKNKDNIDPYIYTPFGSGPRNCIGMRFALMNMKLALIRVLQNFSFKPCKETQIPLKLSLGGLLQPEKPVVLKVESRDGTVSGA

Regarding `CCNC(=O)c1ccc(-c2c(C)nc3c(OCc4ccccc4)cccn23)cc1F`, the IC50 at Gamma-secretase is over 50000 nM. Also, the microsomal CLint at 0.75 h, 0.2 µM in “in vitro” is 500 µL/min/mg.

As to `CCN1C(=O)c2ccc(-c3c(C)nc4c(OCc5ccccc5)cccn34)cc2C1(C)C`, at Gamma-secretase, the 50% inhibitory concentration (IC50) is over 2000 nM. This compound also registered a microsomal CLint at 0.75 h, 0.2 µM in the series “in vitro” of over 1000 µL/min/mg.

Consider `CCNC(=O)c1ccc(-c2c(C)nc3c(OCc4ccccc4-c4ccccc4)cccn23)cn1`, for which the IC50 on Gamma-secretase is 390 nM. For the same compound, the microsomal CLint at 0.75 h, 0.2 µM in “in vitro” was over 1000 µL/min/mg.

Turning to `CCNC(=O)c1ccc(-c2c(C)nc3c(OCc4ccc(C)cc4C)cccn23)cn1`, the microsomal CLint at 0.75 h, 0.2 µM in the series “in vitro” amounted to 652 µL/min/mg.

For the compound `CCNC(=O)c1ccc(-c2c(C)nc3c(OCCc4ccccc4)cccn23)cn1`, the IC50 at Gamma-secretase was 1100 nM. For the same compound, in “in vitro”, the microsomal CLint at 0.75 h, 0.2 µM was over 1000 µL/min/mg.

`CCNC(=O)c1ccc(-c2c(C)nc3c(OCc4ccc(-n5cncn5)cc4)cccn23)cn1` returned a microsomal CLint at 0.75 h, 0.2 µM in “in vitro” of 49.9 µL/min/mg.

On to `CCNC(=O)c1ccc(-c2c(COC)nc3c(OCc4ccccc4)cccn23)cn1`, for which the IC50 at Gamma-secretase was 6200 nM. The microsomal CLint at 0.75 h, 0.2 µM in “in vitro” is 350 µL/min/mg.

In “in vitro”, `CCNC(=O)c1ccc(-c2c(CO)nc3c(OCc4ccccc4)cccn23)cn1` gave a microsomal CLint at 0.75 h, 0.2 µM of 75.7 µL/min/mg.

Regarding `CCNC(=O)c1ccc(-c2c(C)nc3c(OCc4cccc(C(=O)N(C)C)c4)cccn23)cn1`, at Gamma-secretase, the concentration for half-maximal inhibition (IC50) was over 10000 nM. The microsomal CLint at 0.75 h, 0.2 µM in the series “in vitro” worked out at 77.9 µL/min/mg.

Consider `CCNC(=O)c1ccc(-c2c(C)nc3c(OCc4ccc(C)cc4)cccn23)cn1`, for which, on Gamma-secretase, the IC50 was 370 nM. This compound returned a microsomal CLint at 0.75 h, 0.2 µM in “in vitro” of 438 µL/min/mg.

As to `CCNC(=O)c1ccc(-c2c(C)nc3c(OCc4ccc(-c5ccccc5)cc4)cccn23)cn1.Cl`, at Gamma-secretase, the concentration for half-maximal inhibition (IC50) was 91 nM. Moreover, the inhibition result in series [1] is “inactive”. Besides, the values for the concentration at 3 h in [2] and in [3] were 10 µM and 4.6 µM, respectively. Besides, the Kp in series [4] turned out to be 0.45. For the same compound, the Ratio in [5] was determined as 51 nmol/g/uM. Also, the inhibition in vivo at 30 mg/kg in the series on Mus musculus [6] was determined as 36%; in the series on Mus musculus [7], 66%. In addition, the activity at 20 min, 5 µM is 101% at CYP3A4 [8] and 83% on CYP3A4 [9]. This compound yielded a microsomal CLint at 0.75 h, 0.2 µM in the series “in vitro” of 84.7 µL/min/mg.

Take `CCNC(=O)c1ccc(-c2c(C)nc3c(OCc4ccccc4)cccn23)cn1`: at Gamma-secretase, the concentration for half-maximal inhibition (IC50) turned out to be 580 nM. For the same compound, the microsomal CLint at 0.75 h, 0.2 µM in the series “in vitro” came out at 324 µL/min/mg.

As to `CCN1CCc2cc(-c3c(C)nc4c(OCc5ccccc5)cccn34)ccc2C1=O`, the IC50 at Gamma-secretase is over 50000 nM.

For `CCNC(=O)c1ccc(-c2c(C)nc3c(OCc4cccc(F)c4)cccn23)cn1`, the IC50 at Gamma-secretase was found to be 240 nM. In the series “in vitro”, this compound yielded an intrinsic metabolic clearance (microsomal CLint) at 0.75 h, 0.2 µM of 295 µL/min/mg.

Consider `CCN1Cc2cc(-c3c(C)nc4c(OCc5ccccc5)cccn34)ccc2C1=O.Cl`, for which, in [4], the Kp is 0.72. Besides, the Ratio in series [5] was found to be 1.8 nmol/g/uM. In addition, the inhibition in vivo at 30 mg/kg in the series with Mus musculus [6] stood at 2%.

In “in vitro”, `CCNC(=O)c1ccc(-c2c(C#N)nc3c(OCc4ccccc4)cccn23)cn1` had a microsomal CLint at 0.75 h, 0.2 µM of 318 µL/min/mg.

For the compound `CCNC(=O)c1ccc(-c2c(C)nc3c(OCc4ccccc4F)cccn23)cn1.Cl`, the IC50 at Gamma-secretase was 150 nM. The results for the concentration at 3 h in [2] and in series [3] were 2.7 µM and 0.75 µM, respectively. Moreover, in series [4], the Kp was 0.27. In addition, the Ratio in series [5] turned out to be 5 nmol/g/uM. Also, the inhibition in vivo at 30 mg/kg was found to be 6% with Mus musculus [6] and 16% in the series with Mus musculus [7]. This compound displayed a microsomal CLint at 0.75 h, 0.2 µM in “in vitro” of 228 µL/min/mg.

In the case of `CCNC(=O)c1ccc(-c2c(C)nc3c(OCc4c(C)cc(C)cc4C)cccn23)cn1`, the IC50 at Gamma-secretase was found to be 170 nM. Further, the microsomal CLint at 0.75 h, 0.2 µM in the series “in vitro” is over 1000 µL/min/mg.

As for `CCNC(=O)c1ccc(-c2c(C)nc3c(OCc4cccc(-c5ccccc5)c4)cccn23)cn1.Cl`, at Gamma-secretase, the IC50 worked out at 62 nM. Further, the concentration at 3 h stood at 6.6 µM in [2] and 0.77 µM in series [3]. Moreover, the Kp in series [4] was found to be 0.12. Moreover, the Ratio in series [5] is reported as 12 nmol/g/uM. In the series with Mus musculus [6], the inhibition in vivo at 30 mg/kg is 6%. In the series “in vitro”, this compound showed a microsomal CLint at 0.75 h, 0.2 µM of 367 µL/min/mg.
